Laboratory results reported in patent US9211310B2, “Use of a Chinese medicine composition in preparing medicaments for treating secondary prevention of myocardial infarction” (TASLY PHARMACEUTICAL GROUP CO., LTD, priority 2010, dated 2015).

Test system: patients after acute myocardial infarction
Assay: TCM symptom score, total and single (chest pain, chest tightness, short breath, fatigue, palpitation, spontaneous perspiration, pale complexion), same clinical trial
Type: in vivo, human
Set-up: total score of TCM symptom, Mean / total score of TCM symptom, Min / total score of TCM symptom, Max / total score of TCM symptom, Md / change of total score of TCM symptom, Mean / change of total score of TCM symptom, Max / change of total score of TCM symptom, Md: scale not given here
Settings: PP
Excerpt: 3508 patients who were in accordance with the diagnostic standards of AMI for 28 days to 2 years and differentiated as Qi deficiency and blood stagnation syndrome by TCM were studied. 0.5 g Chinese medicine composition prepared by the method of EXAMPLE 1 (Coded as QSYQ) was administrated half an hour after meal, 3 times per day.
They included the overall survival time, angina pectoris score, TCM symptom score and life quality score, where angina pectoris score, TCM symptom score and life quality score were evaluated at randomization, in 1st, 3rd, 6th, 9th, 12th month after treatment and 18th month after follow-up.
The analysis method referred to the angina pectoris score.

CC(=O)Oc1ccccc1C(=O)O [Control group, aspirine]
pale complexion score 3, percent of patients (Baseline): (3.88%) | short breath score 0, % of patients (Baseline): (14.48%) | short breath score 0, number of patients (Baseline): 213 | short breath score 3, % of patients (Baseline): (51.12%) | short breath score 3, number of patients (Baseline): 752 | short breath score 6, % of patients (Baseline): (32.56%) | short breath score 6, number of patients (Baseline): 479 | short breath score 9, % of patients (Baseline): (1.84%) | short breath score 9, number of patients (Baseline): 27 | distribution of total score of TCM symptom: Medium, number of patients (Follow-up): 212 | distribution of total score of TCM symptom: Medium, percentage of patients (Follow-up): (15.23%) | distribution of total score of TCM symptom: Mild, number of patients (Follow-up): 1177 | distribution of total score of TCM symptom: Mild, percentage of patients (Follow-up): (84.55%) | distribution of total score of TCM symptom: Severe, number of patients (Follow-up): 3 | distribution of total score of TCM symptom: Severe, percentage of patients (Follow-up): (0.22%) | fatigue score 0, % of patients (Follow-up): (42.80%) | fatigue score 0, number of patients (Follow-up): 597 | fatigue score 2, % of patients (Follow-up): (52.97%) | fatigue score 2, number of patients (Follow-up): 739 | fatigue score 4, % of patients (Follow-up): (4.01%) | fatigue score 4, number of patients (Follow-up): 56 | fatigue score 6, % of patients (Follow-up): (0.22%) | fatigue score 6, number of patients (Follow-up): 3 | pale complexion score 0, number of patients (Follow-up): 862 | pale complexion score 0, percent of patients (Follow-up): (61.79%) | pale complexion score 1, number of patients (Follow-up): 452 | pale complexion score 1, percent of patients (Follow-up): (32.40%) | pale complexion score 2, number of patients (Follow-up): 75 | pale complexion score 2, percent of patients (Follow-up): (5.38%) | pale complexion score 3, number of patients (Follow-up): 6 | pale complexion score 3, percent of patients (Follow-up): (0.43%) | palpitation score 0, number of patients (Follow-up): 613 | palpitation score 0, percent of patients (Follow-up): (43.94%) | palpitation score 2, number of patients (Follow-up): 683 | palpitation score 2, percent of patients (Follow-up): (48.96%) | palpitation score 4, number of patients (Follow-up): 94 | palpitation score 4, percent of patients (Follow-up): (6.74%) | palpitation score 6, number of patients (Follow-up): 5 | palpitation score 6, percent of patients (Follow-up): (0.36%) | short breath score 0, % of patients (Follow-up): (35.34%) | short breath score 0, number of patients (Follow-up): 493 | short breath score 2, % of patients (Follow-up): (0.07%) | short breath score 2, number of patients (Follow-up): 1 | short breath score 3, % of patients (Follow-up): (54.70%) | short breath score 3, number of patients (Follow-up): 763 | short breath score 6, % of patients (Follow-up): (9.68%) | short breath score 6, number of patients (Follow-up): 135 | short breath score 9, % of patients (Follow-up): (0.22%) | short breath score 9, number of patients (Follow-up): 3 | spontaneous perspiration score 0, number of patients (Follow-up): 750 | spontaneous perspiration score 0, percent of patients (Follow-up): (53.80%) | spontaneous perspiration score 1, number of patients (Follow-up): 578 | spontaneous perspiration score 1, percent of patients (Follow-up): (41.46%) | spontaneous perspiration score 2, number of patients (Follow-up): 62 | spontaneous perspiration score 2, percent of patients (Follow-up): (4.45%) | spontaneous perspiration score 3, number of patients (Follow-up): 4 | spontaneous perspiration score 3, percent of patients (Follow-up): (0.29%) | total score of TCM symptom, Max (Follow-up): 32.00 | total score of TCM symptom, Md (Follow-up): 7.00 | total score of TCM symptom, Mean (Follow-up): 7.73 | total score of TCM symptom, Min (Follow-up): 0.00 | change of fatigue 0, % of patients (Follow-up-baseline): (42.99%) | change of fatigue 0, number of patients (Follow-up-baseline): 598 | change of fatigue 2, % of patients (Follow-up-baseline): (37.60%) | change of fatigue 2, number of patients (Follow-up-baseline): 523 | change of fatigue 4, % of patients (Follow-up-baseline): (11.00%) | change of fatigue 4, number of patients (Follow-up-baseline): 153 | change of fatigue 6, % of patients (Follow-up-baseline): (2.01%) | change of fatigue 6, number of patients (Follow-up-baseline): 28 | change of fatigue −2, % of patients (Follow-up-baseline): (6.18%) | change of fatigue −2, number of patients (Follow-up-baseline): 86 | change of fatigue −4, % of patients (Follow-up-baseline): (0.22%) | change of fatigue −4, number of patients (Follow-up-baseline): 3 | change of pale complexion 0, number of patients (Follow-up-baseline): 932 | change of pale complexion 0, percent of patients (Follow-up-baseline): (67.29%) | change of pale complexion 1, number of patients (Follow-up-baseline): 414 | change of pale complexion 1, percent of patients (Follow-up-baseline): (29.89%) | change of pale complexion −1, number of patients (Follow-up-baseline): 39 | change of pale complexion −1, percent of patients (Follow-up-baseline): (2.82%) | change of palpitation 0, number of patients (Follow-up-baseline): 677 | change of palpitation 0, percent of patients (Follow-up-baseline): (48.71%) | change of palpitation 1, number of patients (Follow-up-baseline): 516 | change of palpitation 1, percent of patients (Follow-up-baseline): (37.12%) | change of palpitation 2, number of patients (Follow-up-baseline): 93 | change of palpitation 2, percent of patients (Follow-up-baseline): (6.69%) | change of palpitation 3, number of patients (Follow-up-baseline): 14 | change of palpitation 3, percent of patients (Follow-up-baseline): (1.01%) | change of palpitation −1, number of patients (Follow-up-baseline): 86 | change of palpitation −1, percent of patients (Follow-up-baseline): (6.19%) | change of palpitation −2, number of patients (Follow-up-baseline): 3 | change of palpitation −2, percent of patients (Follow-up-baseline): (0.22%) | change of palpitation −3, number of patients (Follow-up-baseline): 1 | change of palpitation −3, percent of patients (Follow-up-baseline): (0.07%) | change of short breath 0, % of patients (Follow-up-baseline): (52.12%) | change of short breath 0, number of patients (Follow-up-baseline): 725 | change of short breath 2, % of patients (Follow-up-baseline): (36.45%) | change of short breath 2, number of patients (Follow-up-baseline): 507 | change of short breath 4, % of patients (Follow-up-baseline): (5.46%) | change of short breath 4, number of patients (Follow-up-baseline): 76 | change of short breath 6, % of patients (Follow-up-baseline): (0.72%) | change of short breath 6, number of patients (Follow-up-baseline): 10 | change of short breath −2, % of patients (Follow-up-baseline): (5.10%) | change of short breath −2, number of patients (Follow-up-baseline): 71 | change of short breath −4, % of patients (Follow-up-baseline): (0.00%) | change of short breath −4, number of patients (Follow-up-baseline): 0 | change of short breath −6, % of patients (Follow-up-baseline): (0.14%) | change of short breath −6, number of patients (Follow-up-baseline): 2 | change of spontaneous perspiration 0, number of patients (Follow-up-baseline): 644 | change of spontaneous perspiration 0, percent of patients (Follow-up-baseline): (46.33%) | change of spontaneous perspiration 1, number of patients (Follow-up-baseline): 451 | change of spontaneous perspiration 1, percent of patients (Follow-up-baseline): (32.45%) | change of spontaneous perspiration 2, number of patients (Follow-up-baseline): 138 | change of spontaneous perspiration 2, percent of patients (Follow-up-baseline): (9.93%) | change of spontaneous perspiration 3, number of patients (Follow-up-baseline): 31 | change of spontaneous perspiration 3, percent of patients (Follow-up-baseline): (2.23%) | change of spontaneous perspiration −1, percent of patients (Follow-up-baseline): (8.35%) | change of spontaneous perspiration −2, number of patients (Follow-up-baseline): 8 | change of spontaneous perspiration −2, percent of patients (Follow-up-baseline): (0.58%) | change of spontaneous perspiration −3, number of patients (Follow-up-baseline): 2 | change of spontaneous perspiration −3, percent of patients (Follow-up-baseline): (0.14%) | change of total score of TCM symptom, Max (Follow-up-baseline): 27.00 | change of total score of TCM symptom, Md (Follow-up-baseline): −5.00 | change of total score of TCM symptom, Mean (Follow-up-baseline): −6.16 | change of total score of TCM symptom, Min (Follow-up-baseline): −29.00
